# Test results reported in patent US20160340674A1, “Compositions and Methods to Inhibit EZH2 for the Treatment of Cardiovascular Diseases” (UNIVERSITY OF ROCHESTER, priority 2014, published 2016).
# System: human umbilical vein endothelial cells (HUVECs)
# Assay: KLF2 and eNOS gene expression in endothelial cells treated with GSK126 (RT-PCR and q-PCR)
# Format: cell-based
# Text: Experiments were designed to determine the effects of the EZH2 inhibitor GSK126 on expression of genes KLF2 and eNOS in endothelial cells. Histone methylation is an important epigenetic modification. Histone 3 lysine 27 (H3K27) is correlated with transcriptional repression. EZH2, a histone methytransferase, is critical for the epigenetic maintenance of the H3K27me3 repressive chromatin mark. To determine whether the alternation of histone methylation affects gene expression in endothelial cells, experiments were designed to assess the effects of an EZH2 inhibitor GSK126. […]
# [1] = 0.02 μM GSK126 for different times, RT-PCR and q-PCR (FIG. 1)
compound,measurement,setting,value
"CC[C@H](C)n1cc(C)c2c(C(=O)NCc3c(C)cc(C)[nH]c3=O)cc(-c3ccc(N4CCNCC4)nc3)cc21 [GSK126, (S)-1-(sec-butyl)-N-((4,6-dimethyl-2-oxo-1,2-dihydropyridin-3-yl)methyl)-3-methyl-6-(6-(piperazin-1-yl)pyridin-3-yl)-1H-indole-4-carboxamide]",level of KLF2 mRNA,[1],increased
same,level of eNOS mRNA,[1],increased
same,KLF2 expression,24 hours at different concentrations (FIG. 2A),dose-dependently increased
same,eNOS expression,24 hours at different concentrations (FIG. 2B),dose-dependently increased
